Source: patent publication US10781431B2, “Cardiotonic steroid antagonists and related methods” (MARSHALL UNIVERSITY RESEARCH CORPORTION, priority 2014, dated 2020)
No end group written: not given here.

How the values were obtained:
[1] = reconstituted in vitro system; previously demonstrated (PCT/US2011/021130); cited from earlier work
Na/K-ATPase α1 = biological target: T1, Na/K-ATPase α1 (Sus scrofa, UniProt P05024); assay: tyrosine 260 phosphorylation of Na/K-ATPase, Western blot; format: cell-based; conditions: LLC-PK1 cells, 100 nM ouabain, FIG. 4C
T1 construct: in normal LLC-PK1 cells, tyrosine 260 of full length Na/K-ATPase was phosphorylated; endogenous in cells; host or cells: LLC-PK1
Method: FIGS. 4A-4C include a schematic diagram and images relating to the phosphorylation of Y260 in CD2, FIG. 4A is a schematic diagram showing CD2 sequence from Na/K-ATPase α1 subunit with the tentative Src SH2 domain binding region surrounding Y260 marked in a box (SEQ ID NO: 10). FIG. 4B is an image showing the results of an experiment where five hundred μg of total cell lysate was immunoprecipitated with 10 μg anti-Src antibody and immunoprecipitates were subjected to Western blot analysis of tyrosine 260 phosphorylation using an anti-phosphotyrosine 260 Na/K-ATPase α1 antibody, and where the same membrane was stripped and probed for YFP. FIG. 4C includes images showing the results of an experiment where LLC-PK1 cells were grown up to 100% confluence and then serum starved overnight and treated with 100 nM ouabain for the indicated times and then western blotted by probing for pY260 α1 Na/K-ATPase and a 1 Na/K-ATPase, […] Src and total Src.
In view of the foregoing findings, experiments were then undertaken to develop a highly specific peptide antagonist for disrupting the CD2/SH2 interaction in order to inhibit the cardiotonic steroid-mediated signaling, in cells. […] As depicted in FIG. 4B, CD2 was capable of being phosphorylated when it was expressed in cells.

Molecule	ouabain antagonism [1]	phosphorylation of tyrosine 260 of full length Na/K-ATPase (Na/K-ATPase α1)
CD2C2: peptide derived from CD2, non-phosphorylated; SEQ ID NO: 1 in PCT/US2011/021130 (STNCVEGTARGIVVYTGD; not fully specified (residue 15); listed as Homo sapiens)	effective ouabain antagonist	–
C[C@@H]1O[C@@H](O[C@H]2C[C@@H](O)[C@]3(CO)[C@H]4[C@H](O)C[C@]5(C)[C@@H](C6=CC(=O)OC6)CC[C@]5(O)[C@@H]4CC[C@]3(O)C2)[C@H](O)[C@H](O)[C@H]1O [ouabain]	–	increased the phosphorylation in a time-dependent manner
